Experimental data from patent US20050176764A1, “Medicine for treating cancer” (KOWA CO., LTD, priority 2002, published 2005).
Structures can show the parent of a compound that is named as a salt.

Columns and labels:
Assay type in all cases: cell-based
[1] = system: Human umbilical venous endothelial cells (HUVECs); assay: Gene expression analysis (GeneChip HuGene FL array) in TNFα-stimulated HUVECs; details: Example 10 at 1 μM, TSA at 10 μM
Description: Human umbilical venous endothelial cells (HUVECs) were placed in 10 cm dishes (3×10^5 cells/dish). Two days thereafter, Trichostatin A (TSA, produced by Upstate) dissolved in dimethyl sulfoxide (DMSO) and the compound prepared in Example 10 dissolved in DMSO were individually added to a final concentrations of 10 μM and 1 μM, respectively. Each sample was stimulated with TNFα (final concentration: 10 ng/mL, Genzyme-Techne). Four hours later, total RNA was extracted with ISOGEN (Nippon Gene Co., Ltd.). The subsequent procedure was performed in accordance with the manufacturer's protocol (Affymetrix). From the thus obtained total RNA, mRNA was purified by a conventional method. cDNA was synthesized from the purified mRNA, and then biotin-labeled cRNA was synthesized by in vitro transcription. The cRNA was purified and subjected to heat treatment for fragmentation. The fragmented cRNA was used in gene expression analysis.
Method of gene expression analysis: The thus-prepared fragmented cRNA was injected to a HuGene human FL array (Affymetrix), and allowed to hybridize for 16 hours at 45° C. After washing, streptavidin labeled with phycoerythrin, and biotinylated anti-streptavidin antibody were added to each sample in order to cause reaction. Gene expression information was read by use of a dedicated scanner for GeneChip™ (Hewlett Packard). The thus-obtained information was analyzed with GeneChip Software (Affymetrix) for comparison in terms of level of expression.

ACHN (renal cancer) = assay: Cancer cell growth inhibition, sulforhodamine B colorimetry; details: incubation two days
Description: (§1) Cultured human cancer cells were placed in a 96-well plate. On the following day, a solution of the compound prepared in Example 10 (in five concentrations resulting from 10-fold stepwise dilution: 10^−4, 10^−5, 10^−6, 10^−7, or 10^−8 M) was added, followed by incubation for two days. Cell count after growth was determined in each plate through colorimetry using sulforhodamine B. The concentration at which the cell count after growth was inhibited to 50% of that of the cell count of the control (in the absence of the compound prepared in Example 10) was calculated (GI50). Simultaneously, on the basis of the cell count just before addition of the compound prepared in Example 10 (time zero), the following value (concentration) was calculated. • TGI: a concentration at which cell growth is inhibited to a cell count equal to that at time zero (concentration at which no change in cell count is observed) • LC50: a concentration at which cell count is reduced to 50% of the cell count at time zero (cell-killing effect).

DMS114 (lung cancer) = assay: as above; details: DMS114, incubation two days
Description: as §1

HCC2998 (colon cancer) = assay: as above; details: HCC2998, incubation two days
Description: as §1

LOX-IMVI (melanoma) = assay: as above; details: incubation two days
Description: as §1

MCF-7 (breast cancer) = assay: as above; details: MCF-7, incubation two days
Description: as §1

MKN74 (stomach cancer) = assay: as above; details: MKN74, incubation two days
Description: as §1

OVCAR-3 (ovarian cancer) = assay: as above
Description: as §1

[2] = system: PC-3 (prostatic carcinoma); assay: as above; details: PC-3, incubation two days
Description: as §1

SF-539 (brain tumor) = assay: as above; details: SF-539, incubation two days
Description: as §1

[3] = system: cultured human cancer cells; assay: Cancer cell growth inhibition, sulforhodamine B colorimetry, overall statement; details: result in words
Description: as §1

[4] = out of 52 genes increased twice or more by TNFα
[5] = Homo sapiens, 48 h, read-out: LC50 (the source's name)

## COc1ccc(N(Cc2ccnc(-c3cc(OC)c(OC)c(OC)c3)c2)C2CCN(Cc3ccnc(-c4cc(OC)c(OC)c(OC)c4)c3)CC2)cc1 [Example 10, 4-[N-(4-methoxyphenyl)-N-[[2-(3,4,5-trimethoxypheny)pyridin-4-yl]methyl]amino]-1-[[2-(3,4,5-trimethoxyphenyl)pyridin-4-yl]methyl]piperidine Trihydrochloride]
[1]; TNFα 10 ng/mL, 4 h
  mRNA expression level of ABC transporter B2: 69
  mRNA expression level of B94: 1010
  mRNA expression level of BCL3: 125
  mRNA expression level of Cox-2: 0
  mRNA expression level of EphrinA1: 148
  mRNA expression level of Gro1: 614
  mRNA expression level of I kappa B alpha: 1259
  mRNA expression level of IAP homolog B: 42
  mRNA expression level of ICAM-1: 2174
  mRNA expression level of IFNGR2: 186
  mRNA expression level of IL-7R: 44
  mRNA expression level of M-Ras-regulated GEF: 37
  mRNA expression level of MCP-1: 43
  mRNA expression level of Na/K-ATPase beta-1: 78
  mRNA expression level of Nef associated factor 1: 496
  mRNA expression level of OB-cadherin-2: 24
  mRNA expression level of RDC1: 27
  mRNA expression level of Spliceosomal Protein Sap 49: 40
  mRNA expression level of TRAF1: 88
  mRNA expression level of VCAM-1: 83
  mRNA expression level of beta-galactoside alpha-2; 6-sialyltransferase: 14
  mRNA expression level of caspase-like apoptosis regulatory protein 2 (clarp): 76
  mRNA expression level of cytoplasmic antiproteinase 2 (CAP2): 78
  mRNA expression level of ets-2: 90
  mRNA expression level of exodus-1: 310
  mRNA expression level of fractalkine: 7
  mRNA expression level of junB: 210
  mRNA expression level of lymphotoxin beta: −56
  mRNA expression level of metalloproteinase stromelysin-2: 54
  mRNA expression level of ninjurin1: 135
  mRNA expression level of p50-NF-kappa B homolog: 33
[1]; [4]
  number of genes whose expression was enhanced: 6 genes
  number of genes whose expression was inhibited: 25 genes
ACHN (renal cancer); Homo sapiens, 48 h
  GI50: 1.9 µM
ACHN (renal cancer); [5]
  CC50: > 100 µM
ACHN (renal cancer)
  TGI: >100 µM
DMS114 (lung cancer)
  TGI: 2.6 µM
DMS114 (lung cancer); Homo sapiens, DMS-114, 48 h
  GI50: 0.038 µM
DMS114 (lung cancer); Homo sapiens, DMS-114, 48 h, read-out: LC50 (the source's name)
  CC50: > 100 µM
HCC2998 (colon cancer)
  TGI: 10 µM
HCC2998 (colon cancer); Homo sapiens, HCC 2998, 48 h
  GI50: 0.33 µM
HCC2998 (colon cancer); Homo sapiens, HCC 2998, 48 h, read-out: LC50 (the source's name)
  CC50: 40 µM
LOX-IMVI (melanoma); Homo sapiens, 48 h
  GI50: 0.18 µM
LOX-IMVI (melanoma); [5]
  CC50: 41 µM
LOX-IMVI (melanoma)
  TGI: 1.2 µM
MCF-7 (breast cancer); Homo sapiens, MCF7, 48 h
  GI50: 0.16 µM
MCF-7 (breast cancer); Homo sapiens, MCF7, 48 h, read-out: LC50 (the source's name)
  CC50: > 100 µM
MCF-7 (breast cancer)
  TGI: >100 µM
MKN74 (stomach cancer); Homo sapiens, MKN-74, 48 h
  GI50: 0.026 µM
MKN74 (stomach cancer); Homo sapiens, MKN-74, 48 h, read-out: LC50 (the source's name)
  CC50: > 100 µM
MKN74 (stomach cancer)
  TGI: 0.56 µM
OVCAR-3 (ovarian cancer); Homo sapiens, 48 h, OVCAR-3, incubation two days
  GI50: 0.35 µM
OVCAR-3 (ovarian cancer); Homo sapiens, OVCAR-3, 48 h, read-out: LC50
  CC50: > 100 µM
OVCAR-3 (ovarian cancer); OVCAR-3, incubation two days
  TGI: 39 µM
[2]; Homo sapiens, 48 h
  GI50: 26.3 µM
[2]; [5]
  CC50: > 100 µM
[2]
  TGI: >100 µM
SF-539 (brain tumor); Homo sapiens, 48 h
  GI50: 0.83 µM
  LC50 (concentration reducing cell count to 50% of time-zero count): > 100 µM
SF-539 (brain tumor)
  TGI: >100 µM
[3]
  growth inhibitory effect on cultured human cancer cells: strong growth inhibitory effect
